# Laboratory results as given in ChEMBL document CHEMBL5291721, “A preclinical secondary pharmacology resource illuminates target-adverse drug reaction associations of marketed drugs” (Nat Commun, 2023).
# Key:
# [1] = biological target: Voltage-dependent L-type calcium channel subunit alpha-1C (Homo sapiens, UniProt Q13936); type: functional, cell-based
# [2] = biological target: T1, Muscarinic acetylcholine receptor M5 (Homo sapiens, UniProt P08912)
# T1 sequence (P08912 whole entry): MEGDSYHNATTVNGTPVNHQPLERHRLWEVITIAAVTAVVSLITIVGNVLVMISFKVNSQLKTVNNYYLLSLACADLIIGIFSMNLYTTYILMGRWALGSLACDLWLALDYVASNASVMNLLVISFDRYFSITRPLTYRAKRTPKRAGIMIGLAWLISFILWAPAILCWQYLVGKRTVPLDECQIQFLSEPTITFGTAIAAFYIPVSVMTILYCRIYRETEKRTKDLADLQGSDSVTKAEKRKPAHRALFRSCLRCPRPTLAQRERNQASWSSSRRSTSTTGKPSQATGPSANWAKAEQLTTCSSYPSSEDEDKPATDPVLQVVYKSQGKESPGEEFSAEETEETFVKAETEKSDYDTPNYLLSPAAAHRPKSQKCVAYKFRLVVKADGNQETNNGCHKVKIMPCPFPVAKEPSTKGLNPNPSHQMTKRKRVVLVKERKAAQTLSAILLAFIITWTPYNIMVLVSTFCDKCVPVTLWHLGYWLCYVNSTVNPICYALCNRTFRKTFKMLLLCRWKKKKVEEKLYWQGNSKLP
# [3] = biological target: Rod cGMP-specific 3',5'-cyclic phosphodiesterase subunit alpha (Homo sapiens, UniProt P16499); type: functional
# Rod cGMP-specific 3',5'-cyclic phosphodiesterase subunit alpha, sequence (P16499 whole entry): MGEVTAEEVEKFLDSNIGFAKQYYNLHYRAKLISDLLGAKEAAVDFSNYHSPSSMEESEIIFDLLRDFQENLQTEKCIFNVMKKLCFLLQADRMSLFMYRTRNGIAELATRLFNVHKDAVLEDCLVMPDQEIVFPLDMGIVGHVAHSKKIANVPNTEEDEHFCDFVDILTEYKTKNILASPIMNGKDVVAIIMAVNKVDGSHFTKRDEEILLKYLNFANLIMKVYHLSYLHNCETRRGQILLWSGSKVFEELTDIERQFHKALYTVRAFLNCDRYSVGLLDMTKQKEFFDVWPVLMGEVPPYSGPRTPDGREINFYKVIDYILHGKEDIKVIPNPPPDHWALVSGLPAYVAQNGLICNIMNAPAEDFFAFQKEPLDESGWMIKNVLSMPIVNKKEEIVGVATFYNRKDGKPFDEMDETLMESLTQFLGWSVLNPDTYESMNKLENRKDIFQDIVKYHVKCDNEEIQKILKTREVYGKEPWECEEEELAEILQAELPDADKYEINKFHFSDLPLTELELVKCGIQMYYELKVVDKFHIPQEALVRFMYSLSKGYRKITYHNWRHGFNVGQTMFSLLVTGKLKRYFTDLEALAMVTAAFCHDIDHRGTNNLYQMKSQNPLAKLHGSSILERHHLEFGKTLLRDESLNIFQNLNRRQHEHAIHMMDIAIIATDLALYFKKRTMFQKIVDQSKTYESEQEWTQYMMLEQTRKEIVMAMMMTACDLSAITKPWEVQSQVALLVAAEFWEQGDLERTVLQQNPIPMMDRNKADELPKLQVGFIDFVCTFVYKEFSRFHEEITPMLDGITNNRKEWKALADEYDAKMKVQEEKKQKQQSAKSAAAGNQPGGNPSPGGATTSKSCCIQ
# [4] = biological target: Gamma-aminobutyric acid type B receptor subunit 1 (Homo sapiens, UniProt Q9UBS5)
# Gamma-aminobutyric acid type B receptor subunit 1, sequence (Q9UBS5 whole entry): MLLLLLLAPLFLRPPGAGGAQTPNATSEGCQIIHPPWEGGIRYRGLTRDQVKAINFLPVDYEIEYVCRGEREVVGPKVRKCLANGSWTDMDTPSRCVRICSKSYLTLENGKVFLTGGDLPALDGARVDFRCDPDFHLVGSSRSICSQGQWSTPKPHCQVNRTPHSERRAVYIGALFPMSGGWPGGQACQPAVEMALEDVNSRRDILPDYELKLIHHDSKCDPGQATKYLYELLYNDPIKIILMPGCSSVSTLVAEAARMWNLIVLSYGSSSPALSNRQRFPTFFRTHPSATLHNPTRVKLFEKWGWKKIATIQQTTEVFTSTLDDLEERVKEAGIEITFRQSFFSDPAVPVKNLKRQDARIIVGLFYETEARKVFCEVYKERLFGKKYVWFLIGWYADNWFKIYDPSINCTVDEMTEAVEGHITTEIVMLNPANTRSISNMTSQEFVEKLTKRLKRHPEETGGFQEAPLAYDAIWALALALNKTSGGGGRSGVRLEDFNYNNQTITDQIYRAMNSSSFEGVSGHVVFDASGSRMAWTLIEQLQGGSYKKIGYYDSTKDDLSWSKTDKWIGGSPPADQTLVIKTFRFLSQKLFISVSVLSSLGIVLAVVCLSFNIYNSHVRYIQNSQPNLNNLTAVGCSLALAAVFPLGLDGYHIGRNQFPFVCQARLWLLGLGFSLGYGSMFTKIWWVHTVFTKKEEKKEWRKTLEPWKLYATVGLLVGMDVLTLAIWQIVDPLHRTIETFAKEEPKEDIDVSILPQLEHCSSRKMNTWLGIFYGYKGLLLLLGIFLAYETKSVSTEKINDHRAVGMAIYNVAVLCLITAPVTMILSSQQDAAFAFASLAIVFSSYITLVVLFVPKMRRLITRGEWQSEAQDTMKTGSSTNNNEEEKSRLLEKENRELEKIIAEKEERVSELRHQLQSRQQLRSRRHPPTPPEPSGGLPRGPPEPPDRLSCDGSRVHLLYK
# [5] = biological target: 5-hydroxytryptamine receptor 5A (Homo sapiens, UniProt P47898)
# 5-hydroxytryptamine receptor 5A, sequence (P47898 whole entry): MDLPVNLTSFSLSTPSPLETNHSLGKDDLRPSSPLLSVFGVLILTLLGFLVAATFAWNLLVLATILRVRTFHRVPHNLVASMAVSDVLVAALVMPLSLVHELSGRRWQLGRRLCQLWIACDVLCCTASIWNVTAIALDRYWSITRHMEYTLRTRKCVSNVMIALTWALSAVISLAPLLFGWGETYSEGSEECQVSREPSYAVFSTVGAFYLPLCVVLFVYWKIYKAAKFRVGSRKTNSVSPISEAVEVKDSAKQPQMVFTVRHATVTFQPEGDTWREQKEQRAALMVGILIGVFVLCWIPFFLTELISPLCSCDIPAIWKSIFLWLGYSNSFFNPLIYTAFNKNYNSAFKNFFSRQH
# [6] = biological target: T2, Alpha-2A adrenergic receptor (Homo sapiens, UniProt P08913)
# T2 sequence (P08913 whole entry): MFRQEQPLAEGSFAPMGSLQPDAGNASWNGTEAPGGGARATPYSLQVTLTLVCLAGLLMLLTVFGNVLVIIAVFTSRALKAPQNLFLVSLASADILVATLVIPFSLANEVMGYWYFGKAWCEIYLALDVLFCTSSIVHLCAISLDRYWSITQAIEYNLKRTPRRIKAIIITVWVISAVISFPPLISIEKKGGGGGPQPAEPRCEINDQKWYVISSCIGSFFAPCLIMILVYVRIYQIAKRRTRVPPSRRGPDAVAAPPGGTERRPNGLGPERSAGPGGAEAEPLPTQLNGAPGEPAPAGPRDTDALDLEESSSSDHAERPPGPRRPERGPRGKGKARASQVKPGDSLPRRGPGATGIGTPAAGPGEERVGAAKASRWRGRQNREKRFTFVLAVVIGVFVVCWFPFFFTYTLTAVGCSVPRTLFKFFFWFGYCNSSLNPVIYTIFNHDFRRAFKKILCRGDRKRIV
# [7] = biological target: Vascular endothelial growth factor receptor 2 (Homo sapiens, UniProt P35968); type: functional
# Vascular endothelial growth factor receptor 2, sequence (P35968 whole entry): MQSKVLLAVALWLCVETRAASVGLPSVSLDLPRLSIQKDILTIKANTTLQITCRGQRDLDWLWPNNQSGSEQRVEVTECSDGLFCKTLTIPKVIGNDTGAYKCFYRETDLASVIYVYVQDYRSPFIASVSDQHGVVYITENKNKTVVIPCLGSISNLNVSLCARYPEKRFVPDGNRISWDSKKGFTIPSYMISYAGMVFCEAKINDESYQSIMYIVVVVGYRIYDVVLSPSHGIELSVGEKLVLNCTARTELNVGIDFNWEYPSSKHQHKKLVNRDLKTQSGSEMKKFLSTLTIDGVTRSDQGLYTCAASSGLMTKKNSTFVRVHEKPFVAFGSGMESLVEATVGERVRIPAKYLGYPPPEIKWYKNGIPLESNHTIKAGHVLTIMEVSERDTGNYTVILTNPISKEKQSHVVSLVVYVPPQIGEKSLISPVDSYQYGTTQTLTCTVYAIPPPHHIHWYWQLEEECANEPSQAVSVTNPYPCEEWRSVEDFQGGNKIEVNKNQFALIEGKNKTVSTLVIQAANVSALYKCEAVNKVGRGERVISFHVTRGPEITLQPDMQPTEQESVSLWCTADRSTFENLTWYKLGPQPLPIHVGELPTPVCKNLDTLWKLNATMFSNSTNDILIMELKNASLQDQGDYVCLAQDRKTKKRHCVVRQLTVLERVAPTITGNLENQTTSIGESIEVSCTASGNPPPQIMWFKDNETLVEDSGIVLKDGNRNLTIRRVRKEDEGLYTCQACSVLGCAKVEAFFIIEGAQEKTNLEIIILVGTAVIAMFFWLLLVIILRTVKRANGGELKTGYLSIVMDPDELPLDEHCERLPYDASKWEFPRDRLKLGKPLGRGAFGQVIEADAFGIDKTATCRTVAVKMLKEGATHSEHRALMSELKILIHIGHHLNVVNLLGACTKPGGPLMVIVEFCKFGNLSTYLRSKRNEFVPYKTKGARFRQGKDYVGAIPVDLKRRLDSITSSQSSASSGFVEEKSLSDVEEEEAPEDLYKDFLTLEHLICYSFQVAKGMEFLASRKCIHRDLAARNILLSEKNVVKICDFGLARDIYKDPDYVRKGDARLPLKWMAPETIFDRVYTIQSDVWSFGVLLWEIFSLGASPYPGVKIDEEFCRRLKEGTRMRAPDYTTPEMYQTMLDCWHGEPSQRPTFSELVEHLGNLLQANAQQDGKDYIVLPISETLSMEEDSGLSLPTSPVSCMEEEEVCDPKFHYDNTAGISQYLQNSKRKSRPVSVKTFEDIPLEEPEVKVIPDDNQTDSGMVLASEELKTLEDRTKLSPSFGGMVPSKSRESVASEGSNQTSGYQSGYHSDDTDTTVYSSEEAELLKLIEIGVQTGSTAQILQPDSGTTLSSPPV
# Thromboxane A2 receptor [8] = biological target: T3, Thromboxane A2 receptor (Homo sapiens, UniProt P21731); type: functional
# T3 sequence (P21731 whole entry): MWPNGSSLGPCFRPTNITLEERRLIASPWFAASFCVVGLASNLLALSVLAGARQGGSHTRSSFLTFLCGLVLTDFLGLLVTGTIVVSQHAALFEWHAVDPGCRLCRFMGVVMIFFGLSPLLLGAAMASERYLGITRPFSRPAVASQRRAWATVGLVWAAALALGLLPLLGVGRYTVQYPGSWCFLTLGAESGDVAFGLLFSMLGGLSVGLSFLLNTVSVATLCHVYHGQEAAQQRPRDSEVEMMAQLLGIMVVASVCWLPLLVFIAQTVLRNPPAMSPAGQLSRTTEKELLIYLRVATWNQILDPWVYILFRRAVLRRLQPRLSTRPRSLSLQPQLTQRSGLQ
# Thromboxane A2 receptor [9] = biological target: T3, Thromboxane A2 receptor; type: functional, cell-based
# Estrogen receptor = biological target: T4, Estrogen receptor (Homo sapiens, UniProt P03372); type: functional
# T4 sequence (P03372 whole entry): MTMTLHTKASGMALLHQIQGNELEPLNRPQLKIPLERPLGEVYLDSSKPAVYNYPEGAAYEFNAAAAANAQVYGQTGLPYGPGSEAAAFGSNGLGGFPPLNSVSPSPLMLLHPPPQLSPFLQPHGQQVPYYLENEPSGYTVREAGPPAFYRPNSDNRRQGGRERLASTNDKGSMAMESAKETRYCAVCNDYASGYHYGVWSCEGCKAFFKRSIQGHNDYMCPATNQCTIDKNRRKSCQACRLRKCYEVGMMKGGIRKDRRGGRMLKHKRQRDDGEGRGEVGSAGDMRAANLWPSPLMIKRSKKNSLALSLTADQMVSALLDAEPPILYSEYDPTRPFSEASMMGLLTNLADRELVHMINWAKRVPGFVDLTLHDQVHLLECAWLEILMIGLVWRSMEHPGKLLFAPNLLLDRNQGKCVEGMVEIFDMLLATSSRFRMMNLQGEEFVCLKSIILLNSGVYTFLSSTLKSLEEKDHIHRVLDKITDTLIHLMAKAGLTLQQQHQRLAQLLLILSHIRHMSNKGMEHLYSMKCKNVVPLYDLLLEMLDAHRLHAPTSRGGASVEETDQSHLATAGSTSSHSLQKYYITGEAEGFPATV
# [10] = biological target: 5-hydroxytryptamine receptor 2A (Homo sapiens, UniProt P28223)
# 5-hydroxytryptamine receptor 2A, sequence (P28223 whole entry): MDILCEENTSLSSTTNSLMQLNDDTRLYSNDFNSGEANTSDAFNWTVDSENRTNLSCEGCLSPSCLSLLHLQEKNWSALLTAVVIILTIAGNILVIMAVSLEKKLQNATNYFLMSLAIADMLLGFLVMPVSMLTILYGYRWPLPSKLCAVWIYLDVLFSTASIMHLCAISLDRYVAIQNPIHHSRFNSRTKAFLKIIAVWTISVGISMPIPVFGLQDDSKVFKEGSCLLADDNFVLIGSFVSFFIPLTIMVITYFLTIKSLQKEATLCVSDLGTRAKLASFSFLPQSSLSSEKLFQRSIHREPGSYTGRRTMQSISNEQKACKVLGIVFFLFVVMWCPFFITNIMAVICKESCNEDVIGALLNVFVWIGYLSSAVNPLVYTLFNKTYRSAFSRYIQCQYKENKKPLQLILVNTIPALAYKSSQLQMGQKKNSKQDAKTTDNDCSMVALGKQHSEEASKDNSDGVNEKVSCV
# Adenosine receptor A1 = biological target: T5, Adenosine receptor A1 (Homo sapiens, UniProt P30542)
# T5 sequence (P30542 whole entry): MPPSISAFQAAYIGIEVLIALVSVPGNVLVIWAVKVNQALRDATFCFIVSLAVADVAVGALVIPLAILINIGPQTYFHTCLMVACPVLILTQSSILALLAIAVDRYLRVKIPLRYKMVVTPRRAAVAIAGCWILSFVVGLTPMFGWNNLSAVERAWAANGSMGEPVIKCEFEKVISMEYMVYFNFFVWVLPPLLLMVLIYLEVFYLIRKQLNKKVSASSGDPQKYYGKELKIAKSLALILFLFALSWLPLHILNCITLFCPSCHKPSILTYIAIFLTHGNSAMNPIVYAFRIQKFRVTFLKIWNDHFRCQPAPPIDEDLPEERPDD
# Histamine H1 receptor = Histamine H1 receptor (Homo sapiens, UniProt P35367); type: functional, cell-based
# Histamine H1 receptor, sequence (P35367 whole entry): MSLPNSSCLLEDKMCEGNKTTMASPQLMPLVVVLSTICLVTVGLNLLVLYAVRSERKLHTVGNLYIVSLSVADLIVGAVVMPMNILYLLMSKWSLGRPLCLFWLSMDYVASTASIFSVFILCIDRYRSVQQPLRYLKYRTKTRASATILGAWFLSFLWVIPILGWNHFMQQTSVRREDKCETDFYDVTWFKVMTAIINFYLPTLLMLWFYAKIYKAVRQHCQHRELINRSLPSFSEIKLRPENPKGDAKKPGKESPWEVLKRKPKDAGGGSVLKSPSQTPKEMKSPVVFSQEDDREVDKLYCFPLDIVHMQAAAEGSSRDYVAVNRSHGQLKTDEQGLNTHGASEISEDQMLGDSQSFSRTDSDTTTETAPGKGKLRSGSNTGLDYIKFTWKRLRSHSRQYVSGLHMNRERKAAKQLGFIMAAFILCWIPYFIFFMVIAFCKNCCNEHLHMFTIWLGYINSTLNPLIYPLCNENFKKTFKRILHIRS
# [11] = biological target: Epidermal growth factor receptor (Homo sapiens, UniProt P00533); type: functional
# D(1A) dopamine receptor = D(1A) dopamine receptor (Homo sapiens, UniProt P21728)
# D(1A) dopamine receptor, sequence (P21728 whole entry): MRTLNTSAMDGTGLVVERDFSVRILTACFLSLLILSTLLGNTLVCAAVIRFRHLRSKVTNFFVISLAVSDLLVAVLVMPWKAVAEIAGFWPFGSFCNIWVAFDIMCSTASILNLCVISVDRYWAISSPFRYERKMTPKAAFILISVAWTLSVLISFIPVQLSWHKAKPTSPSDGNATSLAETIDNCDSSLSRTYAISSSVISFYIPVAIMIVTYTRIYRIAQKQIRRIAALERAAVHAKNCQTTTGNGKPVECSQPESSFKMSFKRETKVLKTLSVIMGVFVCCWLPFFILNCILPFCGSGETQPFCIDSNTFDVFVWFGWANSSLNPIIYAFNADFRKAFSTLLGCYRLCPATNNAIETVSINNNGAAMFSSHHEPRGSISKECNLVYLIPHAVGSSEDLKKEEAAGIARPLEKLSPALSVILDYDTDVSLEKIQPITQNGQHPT
# Also: assay procedure not described here.
smiles,measurement,setting,value
COC(=O)N[C@H](C(=O)N1CCC[C@H]1c1nc(-c2ccc(-c3ccc(-c4c[nH]c([C@@H]5CCCN5C(=O)[C@@H](NC(=O)OC)C(C)C)n4)cc3)cc2)c[nH]1)C(C)C,AC50,[1],> 30 µM
CCOC(=O)[C@H](CCc1ccccc1)N[C@@H](C)C(=O)N1CCC[C@H]1C(=O)O,AC50,[2],> 10 µM
same,AC50,[3],> 10 µM
same,AC50,[4],> 10 µM
same,AC50,[5],> 10 µM
Nc1nc(N)c2nc(-c3ccccc3)c(N)nc2n1,AC50,[2],> 10 µM
same,AC50,[6],> 30 µM
same,AC50,[3],> 10 µM
same,AC50,[7],> 30 µM
same,AC50,[4],> 10 µM
same,AC50,[5],> 10 µM
same,AC50,Thromboxane A2 receptor [8],> 30 µM
same,AC50,Thromboxane A2 receptor [9],> 30 µM
C[C@H]1O[C@H](O[C@H]2[C@H](O)[C@@H](O)[C@@H](O[C@H]3[C@H](O)[C@@H](O)C(O)O[C@@H]3CO)O[C@@H]2CO)[C@H](O)[C@@H](O)[C@@H]1N[C@H]1C=C(CO)[C@@H](O)[C@H](O)[C@H]1O (stereo partly specified) [ACARBOSE],AC50,[2],> 10 µM
same,AC50,[4],> 10 µM
CC(=O)c1ccc2c(c1)N(CCCN1CCN(CCO)CC1)c1ccccc1S2 [ACETOPHENAZINE],AC50,Estrogen receptor,> 30 µM
Oc1ncnc2[nH]ncc12 [ALLOPURINOL],AC50,[6],> 30 µM
same,AC50,[7],> 30 µM
same,AC50,Thromboxane A2 receptor [8],> 30 µM
same,AC50,Thromboxane A2 receptor [9],> 30 µM
CC(N)Cc1ccccc1 (stereo unspecified) [AMPHETAMINE],AC50,[10],> 10 µM
same,AC50,Estrogen receptor,> 30 µM
CN1CCCC(n2nc(Cc3ccc(Cl)cc3)c3ccccc3c2=O)CC1 (stereo unspecified) [AZELASTINE],AC50,Estrogen receptor,> 30 µM
O=C1c2c(O)c(=O)ccn2N([C@@H]2c3ccccc3SCc3c2ccc(F)c3F)[C@@H]2COCCN12 [BALOXAVIR],AC50,[1],> 50 µM
CC(C)NCC(O)COc1ccc(COCCOC(C)C)cc1 (stereo unspecified) [BISOPROLOL],AC50,[10],> 10 µM
COc1cc(Nc2c(C#N)cnc3cc(OCCCN4CCN(C)CC4)c(OC)cc23)c(Cl)cc1Cl [BOSUTINIB],AC50,[2],12.1 µM
same,AC50,[4],> 10 µM
same,AC50,Adenosine receptor A1,> 30 µM
CC(=O)OCC(=O)[C@@]1(O)CC[C@H]2[C@@H]3CCC4=CC(=O)CC[C@]4(C)[C@H]3C(=O)C[C@@]21C [CORTISONE ACETATE],AC50,Adenosine receptor A1,> 30 µM
CN(CCOc1ccc(NS(C)(=O)=O)cc1)CCc1ccc(NS(C)(=O)=O)cc1 [DOFETILIDE],AC50,[10],> 10 µM
COc1cc2c(cc1OC)C(=O)C(CC1CCN(Cc3ccccc3)CC1)C2 (stereo unspecified) [DONEPEZIL],AC50,[2],15.4 µM
same,AC50,[4],> 10 µM
same,AC50,[10],> 10 µM
COC(=O)[C@@H]1CC2=CC(=O)CC[C@]2(C)[C@@]23O[C@@H]2C[C@@]2(C)[C@@H](CC[C@@]24CCC(=O)O4)[C@H]13 [EPLERENONE],AC50,Histamine H1 receptor,> 30 µM
same,AC50,[7],> 30 µM
same,AC50,[10],> 10 µM
same,AC50,[11],> 30 µM
same,AC50,Estrogen receptor,> 30 µM
CCC(=O)O[C@H]1[C@H](O[C@@H]2[C@@H](C)[C@H](O[C@H]3C[C@@](C)(OC)[C@@H](O)[C@H](C)O3)[C@@H](C)C(=O)O[C@H](CC)[C@@](C)(O)[C@H](O)[C@@H](C)C(=O)[C@H](C)C[C@@]2(C)O)O[C@H](C)C[C@@H]1N(C)C [ERYTHROMYCIN PROPIONATE],AC50,D(1A) dopamine receptor,17 µM
same,AC50,Adenosine receptor A1,> 30 µM
C#C[C@]1(O)CC[C@H]2[C@@H]3CCc4cc(O)ccc4[C@H]3CC[C@@]21C [ETHINYL ESTRADIOL],AC50,[4],> 10 µM
same,AC50,[5],> 30 µM
same,AC50,Adenosine receptor A1,> 30 µM
NC(N)=Nc1nc(CSCCC(N)=NS(N)(=O)=O)cs1 [FAMOTIDINE],AC50,[2],> 10 µM
same,AC50,[3],> 10 µM
same,AC50,[5],> 10 µM
